Source: ChEMBL document CHEMBL1201862, “PubChem BioAssay data set” (2004)
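How tested: cells in 96-well plates exposed to compound for 48 hours at five concentrations. GI50 marks 50% less growth.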 Active and inactive are the calls of the source. Cut-off read from the data, not from the text of the source: active = GI50 up to about 1.1 µM and inactive = higher.

Tests used:
Experiment in all cases: NCI-60 cell line screen, 48 h
ACHN = system: ACHN
CAKI-1 = system: CAKI-1
DU-145 = system: DU-145
EKVX = system: EKVX
HCT-116 = system: HCT-116
HL-60 = system: HL-60
KM12 = system: KM12
MDA-MB-231 = system: MDA-MB-231
Malme-3M = system: Malme-3M
NCI-H460 = system: NCI-H460
NCI-H522 = system: NCI-H522
NCI/ADR-RES = system: NCI/ADR-RES
OVCAR-4 = system: OVCAR-4
OVCAR-5 = system: OVCAR-5
PC-3 = system: PC-3
RXF 393 = system: RXF 393
SK-MEL-28 = system: SK-MEL-28
SK-MEL-5 = system: SK-MEL-5
SW-620 = system: SW-620
UACC-257 = system: UACC-257

Compound	GI50 (ACHN)	GI50 (CAKI-1)	GI50 (DU-145)	GI50 (EKVX)	GI50 (HCT-116)	GI50 (HL-60)	GI50 (KM12)	GI50 (MDA-MB-231)	GI50 (Malme-3M)	GI50 (NCI-H460)	GI50 (NCI-H522)	GI50 (NCI/ADR-RES)	GI50 (OVCAR-4)	GI50 (OVCAR-5)	GI50 (PC-3)	GI50 (RXF 393)	GI50 (SK-MEL-28)	GI50 (SK-MEL-5)	GI50 (SW-620)	GI50 (UACC-257)
O=[N+]([O-])c1cc(-c2nc(-c3ccccc3)c(-c3ccccc3)[nH]2)c(O)c([N+](=O)[O-])c1	21.6 µM (inactive)	27.4 µM (inactive)	21.9 µM (inactive)	23.4 µM (inactive)	17.7 µM (inactive)	25.6 µM (inactive)	24.9 µM (inactive)	22.4 µM (inactive)	21.1 µM (inactive)	21.5 µM (inactive)	20.2 µM (inactive)	19.1 µM (inactive)	34 µM (inactive)	23.2 µM (inactive)	20.3 µM (inactive)	17.4 µM (inactive)	31.7 µM (inactive)	17.7 µM (inactive)	27.5 µM (inactive)	24.2 µM (inactive)
O=[N+]([O-])c1ccc2ncccc2c1CCc1c([N+](=O)[O-])ccc2ncccc12	> 100 µM (inactive)	> 100 µM (inactive)	> 100 µM (inactive)	> 100 µM (inactive)	> 100 µM (inactive)	> 100 µM (inactive)	> 100 µM (inactive)	> 100 µM (inactive)	> 100 µM (inactive)	> 100 µM (inactive)	> 100 µM (inactive)	> 100 µM (inactive)	> 100 µM (inactive)	> 100 µM (inactive)	> 100 µM (inactive)	> 100 µM (inactive)	> 100 µM (inactive)	> 100 µM (inactive)	> 100 µM (inactive)	> 100 µM (inactive)
N#Cc1[nH]c(=O)n(-c2ccc(Cl)cc2)c1N	> 10 µM (inactive)	0.00637 µM (active)	> 10 µM (inactive)	> 10 µM (inactive)	> 10 µM (inactive)	> 10 µM (inactive)	> 10 µM (inactive)	> 10 µM (inactive)	8.79 µM (inactive)	> 10 µM (inactive)	> 10 µM (inactive)	> 10 µM (inactive)	> 10 µM (inactive)	> 10 µM (inactive)	> 10 µM (inactive)	> 10 µM (inactive)	> 10 µM (inactive)	> 10 µM (inactive)		> 10 µM (inactive)
OC1(c2ccc3ccccc3c2)c2c(c3ccccc3c3ccccc23)C2=NCCN21 (configuration not stated)	8.22 µM (inactive)	11.7 µM (inactive)	16.9 µM (inactive)	5.51 µM (inactive)	2.88 µM (inactive)	6.46 µM (inactive)	2.32 µM (inactive)	10.1 µM (inactive)	10.4 µM (inactive)	4.3 µM (inactive)	3.85 µM (inactive)	2.13 µM (inactive)	3.55 µM (inactive)	7.78 µM (inactive)	4.54 µM (inactive)	2.47 µM (inactive)	2.12 µM (inactive)	17 µM (inactive)	3.34 µM (inactive)	18.5 µM (inactive)
O=C(NCCc1ccccn1)c1ccc2cc(C(=O)N3CC(CCl)c4ccc([N+](=O)[O-])cc43)[nH]c2c1 (configuration not stated)	36.6 µM (inactive)	> 24.2 µM (inactive)	> 52.4 µM (inactive)	47.4 µM (inactive)	> 70.3 µM (inactive)	> 100 µM (inactive)	> 100 µM (inactive)	> 33.1 µM (inactive)	10.9 µM (inactive)	22.7 µM (inactive)	9.82 µM (inactive)	26.1 µM (inactive)	4.31 µM (inactive)	97.9 µM (inactive)	44.6 µM (inactive)	7.66 µM (inactive)	> 100 µM (inactive)	> 61.5 µM (inactive)	> 100 µM (inactive)	> 46.3 µM (inactive)
c1ccc(-c2cn3c(nc4ccccc43)c(-c3ccccc3)n2)cc1	> 100 µM (inactive)	> 48.9 µM (inactive)	> 100 µM (inactive)	> 100 µM (inactive)	> 86.9 µM (inactive)	> 100 µM (inactive)	> 100 µM (inactive)	> 100 µM (inactive)	> 96.2 µM (inactive)	58.1 µM (inactive)	35.2 µM (inactive)	47.6 µM (inactive)	4.56 µM (inactive)	> 54.2 µM (inactive)	> 57.7 µM (inactive)	> 38 µM (inactive)	> 100 µM (inactive)	84.3 µM (inactive)	> 100 µM (inactive)	> 100 µM (inactive)
CCc1ccc2oc(=O)ccc2c1	> 100 µM (inactive)	> 100 µM (inactive)	> 10 µM (inactive)	32.2 µM (inactive)	> 100 µM (inactive)	42.5 µM (inactive)	> 100 µM (inactive)	> 10 µM (inactive)	> 100 µM (inactive)	> 100 µM (inactive)	> 100 µM (inactive)	> 100 µM (inactive)	> 100 µM (inactive)	> 100 µM (inactive)	> 100 µM (inactive)	> 100 µM (inactive)	> 100 µM (inactive)	> 100 µM (inactive)	> 100 µM (inactive)	> 100 µM (inactive)
CCOC(=O)N/N=C/C1=NN(C(=O)OCC)[S+]([O-])C1C (configuration not stated)	> 100 µM (inactive)	> 100 µM (inactive)	> 100 µM (inactive)	> 100 µM (inactive)	> 100 µM (inactive)	> 100 µM (inactive)	> 100 µM (inactive)	> 100 µM (inactive)	> 100 µM (inactive)	96.8 µM (inactive)	> 100 µM (inactive)	> 100 µM (inactive)	> 100 µM (inactive)	> 100 µM (inactive)	> 100 µM (inactive)	> 100 µM (inactive)	> 100 µM (inactive)	> 100 µM (inactive)	> 100 µM (inactive)	> 100 µM (inactive)
CC(=O)Nc1cc2nc3n(c2cc1C)CCC3OC(C)=O (configuration not stated)	> 100 µM (inactive)	> 100 µM (inactive)	> 100 µM (inactive)	> 100 µM (inactive)	> 100 µM (inactive)	> 100 µM (inactive)	> 100 µM (inactive)	> 100 µM (inactive)	> 100 µM (inactive)	> 100 µM (inactive)	> 100 µM (inactive)	> 100 µM (inactive)	> 100 µM (inactive)	> 100 µM (inactive)	> 100 µM (inactive)	> 100 µM (inactive)	> 100 µM (inactive)		> 100 µM (inactive)	> 100 µM (inactive)
Fc1ccc(C(=C2CCN(CCc3ccc4[nH]c(=S)[nH]c4c3)CC2)c2ccc(F)cc2)cc1	8.83 µM (inactive)	10.8 µM (inactive)	2.98 µM (inactive)	3.51 µM (inactive)	1.79 µM (inactive)	2.33 µM (inactive)	6.47 µM (inactive)	4.43 µM (inactive)	1.47 µM (inactive)	2.83 µM (inactive)	1.52 µM (inactive)	8.59 µM (inactive)	5 µM (inactive)	9.23 µM (inactive)	2.73 µM (inactive)	1.85 µM (inactive)	1.51 µM (inactive)	1.84 µM (inactive)	2.47 µM (inactive)	
